Assay results taken from ChEMBL document CHEMBL1156372, “New halogenated marine prostanoids with cytotoxic activity from the Okinawan soft coral Clavularia viridis” (J Nat Prod, 2001).
≈ marks a conversion by molar mass, not a printed value.

How the values were obtained:
Assay type in all cases: functional, cell-based
DLD-1 = assay: Cytotoxicity against human DLD1 cells by MTT assay
IMR-90 = assay: Cytotoxicity against human IMR90 cells by MTT assay
MOLT-4 = assay: Cytotoxicity against human MOLT4 cells by MTT assay

CCCCC/C=C\C[C@@]1(O)C=C(I)C(=O)[C@@H]1[C@H](/C=C\CCCC(=O)OC)OC(C)=O
IC50 (DLD-1): 0.6 µg/mL (≈ 1.13 µM)
IC50 (IMR-90): 4.5 µg/mL (≈ 8.45 µM)
IC50 (MOLT-4): 0.52 µg/mL (≈ 0.977 µM)
